From patent US20250340552A1, “COMPOUNDS, COMPOSITIONS AND METHODS OF TREATING DISORDERS” (HOTSPOT THERAPEUTICS, INC., priority 2022, published 2025)
Read-outs that look alike come from different tables or passages of the source. Each block holds one compound with its values, some of them ahead of it.

Target: T1, Cbl-B (Homo sapiens, UniProt Q13191)
T1 construct: MSD-Based Assay for Degradation of Cbl-B in THP-1 Cells; endogenous in cells; host or cells: THP-1 (title) / Jurkat (protocol text)
Test: MSD-based assay for degradation of Cbl-B in THP-1 cells
Format: cell-based
Outline: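 THP-1 cells were treated with compound for 24 h at 37 °C. Cbl-B in lysates was quantified by MSD sandwich immunoassay, with anti-Cbl-B capture antibody at 1 ug/mL and SULFO-TAG anti-rabbit detection. Maximal degradation (Dmax) was binned as A >70%, B 50–70%, C 30–50%, D <30%.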

[1] = Cbl-B degradation, Jurkat cells seeded (heading: THP-1 cells), 24 hours incubation, MSD readout
[2] = Cbl-B degradation, Jurkat cells seeded (heading: THP-1 cells), 24 hours incubation, MSD readout, read-out: Dmax

T1 sequence (Q13191 whole entry): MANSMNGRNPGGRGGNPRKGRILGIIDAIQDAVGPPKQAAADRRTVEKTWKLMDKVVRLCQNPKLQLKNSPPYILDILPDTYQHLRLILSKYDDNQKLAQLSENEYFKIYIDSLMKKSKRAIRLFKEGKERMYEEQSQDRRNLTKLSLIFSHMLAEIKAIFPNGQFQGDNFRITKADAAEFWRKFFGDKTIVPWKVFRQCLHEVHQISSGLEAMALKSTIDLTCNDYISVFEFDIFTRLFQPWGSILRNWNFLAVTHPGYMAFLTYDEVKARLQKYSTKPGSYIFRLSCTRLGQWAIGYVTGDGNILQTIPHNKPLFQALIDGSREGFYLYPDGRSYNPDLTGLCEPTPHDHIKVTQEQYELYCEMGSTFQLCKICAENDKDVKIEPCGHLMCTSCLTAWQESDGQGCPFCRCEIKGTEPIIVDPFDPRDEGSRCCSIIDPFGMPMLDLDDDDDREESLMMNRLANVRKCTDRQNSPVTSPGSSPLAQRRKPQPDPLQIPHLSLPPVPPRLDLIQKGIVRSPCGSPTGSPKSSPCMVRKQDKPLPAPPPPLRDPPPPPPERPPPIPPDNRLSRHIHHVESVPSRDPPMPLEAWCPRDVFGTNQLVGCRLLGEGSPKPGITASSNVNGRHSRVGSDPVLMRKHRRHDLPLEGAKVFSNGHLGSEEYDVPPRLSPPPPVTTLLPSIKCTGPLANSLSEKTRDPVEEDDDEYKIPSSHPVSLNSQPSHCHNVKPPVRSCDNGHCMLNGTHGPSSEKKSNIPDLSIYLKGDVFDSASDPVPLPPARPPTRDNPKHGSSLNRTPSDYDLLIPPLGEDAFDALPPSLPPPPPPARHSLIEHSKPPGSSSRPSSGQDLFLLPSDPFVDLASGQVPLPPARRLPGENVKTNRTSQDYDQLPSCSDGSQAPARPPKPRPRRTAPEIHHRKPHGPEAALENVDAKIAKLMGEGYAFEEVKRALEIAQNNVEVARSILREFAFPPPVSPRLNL

SMILES: Cn1cnnc1[C@@H](c1cccc(-n2cc3c(C(F)(F)F)cc(CN4CCC[C@H](OCCN5CCC(CN6CCN(c7ccc8c(c7)CN([C@@H]7CCC(=O)NC7=O)C8=O)CC6)CC5)C4)cn3c2=O)c1)C1CCC1 [Compound 55]
DC50 [1]: 1000 to 10000 nM
Dmax [2]: 30 to 50%

SMILES: Cn1cnnc1[C@@H](c1cccc(-n2cc3c(C(F)(F)F)cc(CN4CCC(OCCN5CCC(CN6CCN(c7ccc8c(c7)CN([C@@H]7CCC(=O)NC7=O)C8=O)CC6)CC5)CC4)cn3c2=O)c1)C1COC1 [Compound 57]
DC50 [1]: 1000 to 10000 nM
Dmax [2]: 50 to 70%

SMILES: Cn1cnnc1[C@@H](c1cccc(-n2cc3c(C(F)(F)F)cc(CN4CC[C@@H](OCCOCc5ccc(COCCNc6cccc7c6C(=O)N(C6CCC(=O)NC6=O)C7=O)cc5)C4)cn3c2=O)c1)C1CCC1 (stereo partly drawn) [Compound 59]
DC50 [1]: 300 to 1000 nM
Dmax [2]: 30 to 50%

SMILES: Cn1cnnc1[C@@H](c1cccc(-n2cc3c(C(F)(F)F)cc(CN4CC[C@H](OCCOCc5ccc(COCCNc6cccc7c6C(=O)N(C6CCC(=O)NC6=O)C7=O)cc5)C4)cn3c2=O)c1)C1CCC1 (stereo partly drawn) [Compound 60]
DC50 [1]: 300 to 1000 nM
Dmax [2]: 30 to 50%

SMILES: Cn1cnnc1[C@@H](c1cccc(N2Cc3c(cc(CN4CCC(OCCN5CCC(CN6CCN(c7ccc8c(c7)CN([C@@H]7CCC(=O)NC7=O)C8=O)CC6)CC5)CC4)cc3C(F)(F)F)C2=O)c1)C1CCC1 [Compound 65]
DC50 [1]: 300 to 1000 nM
Dmax [2]: 50 to 70%

SMILES: Cn1cnnc1[C@@H](c1cccc(N2Cc3c(cc(CN4CCC(OCCN5CCC(CN6CCN(c7ccc8c(c7)CN([C@H]7CCC(=O)NC7=O)C8=O)CC6)CC5)CC4)cc3C(F)(F)F)C2=O)c1)C1CCC1 [Compound 66]
DC50 [1]: 30 to 300 nM
Dmax (THP-1): 50 to 70%

SMILES: CO[C@H]1C[C@](c2cccc(-n3cc4c(C(F)(F)F)cc(CN5CCC(OCCN6CCC(CN7CCN(c8ccc9c(c8)CN([C@@H]8CCC(=O)NC8=O)C9=O)CC7)CC6)CC5)cn4c3=O)c2)(c2nncn2C)C1 [Compound 69]
DC50 [1]: 300 to 1000 nM
Dmax [2]: 30 to 50%

SMILES: CO[C@H]1C[C@](c2cccc(-n3cc4c(C(F)(F)F)cc(CN5CCC(OCCN6CCC(CN7CCN(c8ccc9c(c8)CN([C@H]8CCC(=O)NC8=O)C9=O)CC7)CC6)CC5)cn4c3=O)c2)(c2nncn2C)C1 [Compound 70]
DC50 [1]: 30 to 300 nM
Dmax [2]: 50 to 70%

SMILES: Cn1cnnc1CC1(c2cccc(N3Cc4c(cc(CN5CCC(OCCN6CCC(CN7CCN(c8ccc9c(c8)CN([C@H]8CCC(=O)NC8=O)C9=O)CC7)CC6)CC5)cc4C(F)(F)F)C3=O)c2)COC1 [Compound 76]
DC50 [1]: 30 to 300 nM
Dmax [2]: 50 to 70%

Further lines, results first:

DC50 [1]: 30 to 300 nM
Dmax [2]: > 70%
SMILES: Cn1cnnc1[C@@H](c1cccc(-n2cc3c(C(F)(F)F)cc(CN4CCC[C@H](OCCN5CCC(CN6CCN(c7ccc8c(c7)CN([C@H]7CCC(=O)NC7=O)C8=O)CC6)CC5)C4)cn3c2=O)c1)C1CCC1 [Compound 56]

DC50 [1]: 30 to 300 nM
Dmax [2]: > 70%
SMILES: Cn1cnnc1[C@@H](c1cccc(-n2cc3c(C(F)(F)F)cc(CN4CCC(OCCN5CCC(CN6CCN(c7ccc8c(c7)CN([C@H]7CCC(=O)NC7=O)C8=O)CC6)CC5)CC4)cn3c2=O)c1)C1COC1 [Compound 58]

DC50 [1]: 30 to 300 nM
Dmax [2]: > 70%
SMILES: Cn1cnnc1CC1(c2cccc(-n3cc4c(C(F)(F)F)cc(CN5CCN(CCN6CCC(CN7CCN(c8ccc9c(c8)CN([C@H]8CCC(=O)NC8=O)C9=O)CC7)CC6)CC5)cn4c3=O)c2)COC1 [Compound 62]

DC50 [1]: 300 to 1000 nM
Dmax [2]: 30 to 50%
SMILES: Cn1cnnc1[C@@H](c1cccc(-n2cc3c(C(F)(F)F)cc(CN4CCN(CCN5CCC(CN6CCN(c7ccc8c(c7)CN([C@@H]7CCC(=O)NC7=O)C8=O)CC6)CC5)CC4)cn3c2=O)c1)C1CCC1 [Compound 63]

DC50 [1]: 1000 to 10000 nM
Dmax [2]: 30 to 50%
SMILES: CO[C@H]1C[C@@](c2cccc(-n3cc4c(C(F)(F)F)cc(CN5CCC(OCCN6CCC(CN7CCN(c8ccc9c(c8)CN([C@@H]8CCC(=O)NC8=O)C9=O)CC7)CC6)CC5)cn4c3=O)c2)(c2nncn2C)C1 [Compound 73]

DC50 [1]: 1000 to 10000 nM
Dmax [2]: 50 to 70%
SMILES: CO[C@H]1C[C@@](c2cccc(-n3cc4c(C(F)(F)F)cc(CN5CCC(OCCN6CCC(CN7CCN(c8ccc9c(c8)CN([C@H]8CCC(=O)NC8=O)C9=O)CC7)CC6)CC5)cn4c3=O)c2)(c2nncn2C)C1 [Compound 74]
